# Reference: patent US9085582B2, “Benzotriazolodiazepine compounds inhibitors of bromodomains” (GlaxoSmithKline LLC, priority 2010, dated 2015)
# Test system: IL-6
# Assay: Measurement of LPS induced IL-6 secretion from whole blood
# Format: cell-based
# Details: LPS 200 ng/ml stimulated whole blood, 24 hours, IL-6 by immunoassay
# Method: Measurement of LPS Induced IL-6 Secretion from Whole Blood
# Activation of monocytic cells by agonists of toll-like receptors such as bacterial lipopolysaccharide (LPS) results in production of key inflammatory mediators including IL-6. Such pathways are widely considered to be central to the pathophysiology of a range of auto-immune and inflammatory disorders.
# Compounds to be tested are diluted to give a range of appropriate concentrations of which 1 ul of the diluted stocks is added to a 96 well plate. Following addition of whole blood (130 ul) the plates are incubated at 37 degrees (5% CO2) for 30 min before the addition of 10 ul of 2.8 ug/ml LPS, diluted in complete RPMI 1640 (final concentration=200 ng/ml), to give a total volume of 140 ul per well. After further incubation for 24 hours at 37 degrees, 140 ul of PBS are added to each well. The plates are sealed, shaken for 10 minutes and then centrifuged (2500 rpm×10 min). 100 ul of the supernatant are removed and IL-6 levels assayed by immunoassay (typically by MesoScale Discovery technology) either immediately or following storage at −20 degrees. Concentration response curves for each compound was generated from the data and an IC50 value was calculated
row,Compound,IC50 [µM]
1,"CCNC(=O)C[C@@H]1N=C(c2ccc(Cl)cc2)c2cc(-c3ccccc3)ccc2-n2c(C)nnc21 [Example 1, 2-[(4S)-6-(4-Chlorophenyl)-1-methyl-8-phenyl-4H-[1,2,4]triazolo[4,3-a][1,4]benzodiazepin-4-yl]-N-ethylacetamide]",≤ 3.16
2,"CCNC(=O)C[C@@H]1N=C(c2ccc(Cl)cc2)c2cc(-c3ccc(OC)cc3)ccc2-n2c(C)nnc21 [Example 3, 2-{(4S)-6-(4-Chlorophenyl)-1-methyl-8-[4-(methyloxy)phenyl]-4H-[1,2,4]triazolo[4,3-a][1,4]benzodiazepin-4-yl}-N-ethylacetamide]",≤ 3.16
3,"CCNC(=O)C[C@@H]1N=C(c2ccc(Cl)cc2)c2cc(-c3ccn[nH]3)ccc2-n2c(C)nnc21 [Example 4, 2-[(4S)-6-(4-Chlorophenyl)-1-methyl-8-(1H-pyrazol-5-yl)-4H-[1,2,4]triazolo[4,3-a][1,4]benzodiazepin-4-yl]-N-ethylacetamide]",≤ 3.16
4,"CCNC(=O)C[C@@H]1N=C(c2ccc(Cl)cc2)c2cc(-c3cn[nH]c3)ccc2-n2c(C)nnc21 [Example 5, 2-[(4S)-6-(4-Chlorophenyl)-1-methyl-8-(1H-pyrazol-4-yl)-4H-[1,2,4]triazolo[4,3-a][1,4]benzodiazepin-4-yl]-N-ethylacetamide]",≤ 3.16
5,"CCNC(=O)C[C@@H]1N=C(c2ccc(Cl)cc2)c2cc(-c3ccc(CN4CCCC4)cc3)ccc2-n2c(C)nnc21 [Example 13, (S)-2-(6-(4-Chlorophenyl)-1-methyl-8-(4-(pyrrolidin-1-ylmethyl)phenyl)-4H-benzo[f][1,2,4]triazolo[4,3-a][1,4]diazepin-4-yl)-N-ethylacetamide]",≤ 3.16
